Measurements from US10752900B2, “Oligonucleotides for modulating gene expression and uses thereof” (BIOGENERA S.P.A., priority 2012, dated 2020).

Each substance was assayed on human and mouse neuroblastoma tumour cell lines (SMS-KAN, LAN 1, IMR-32, SMS-KCN, Kelly, NHO2A, SKNBE2c) (assay: not given). Settings: not given.
Format: cell-based

Substance	effect in terms of inhibiting cell proliferation in combination with chemotherapeutic agents
SEQ ID NO: 1: PNA ATGCCGGGCATGATCT against MYCN; subject of patent EP 1618195, control sequence used for comparison (all peptide nucleic acid (PNA)) [reference compound]	synergic effect

The substances below were run on MYCN gene (assay: QT-PCR, MYCN mRNA in WERI-Rb1 cells). Settings: Table 6.
Format: cell-based
Procedure: For the purpose of assessing the ability of the oligonucleotides of the present invention to modulate the expression of the target genes, their ability to reduce the quantity of messenger RNA was analyzed using the Real-Time PCR technique. For this purpose, use was made of 24-well plates, which were seeded with 5.0×10^4 cells with 0.3 ml of OPTI-MEM (GIBCO BRL) medium, 4% FBS and 2 mM L-glutammine (experiments in triplicate) per well. The cells were incubated for 24 hours at 37° C., in an atmosphere containing 5% CO2 to permit adherence to the base of the wells. For each well, the oligonucleotides were analyzed at the following final concentrations: • the antisense oligonucleotides siRNA and siRNA gapmer (i.e. the oligonucleotides containing one or more monomers of chemically modified nucleic acids at the 3' or 5' end, while in the central portion they have monomers of nucleic acids that have not been modified or have been modified at the level of the phosphodiester bond as a phosphorothioate bond) were used at 200 nM; • the antisense oligonucleotides containing phosphorothioate DNA monomers, the RNA antigene oligonucleotides (agRNA) and the oligonucleotides containing DNA monomers and LNA monomers were used at 10 μM; • the morpholino oligonucleotides were used at a concentration of 1 μM, and • the PNA oligonucleotides were administered at a concentration of 1 μM. The cells were treated with the oligonucleotides, adding FBS up to 4% 6 hours after administration of the same. After 24 hours the total RNA was extracted from each well and purified using the RNeasy Mini Kit (QIAGEN). As a control, use was made of the same cell lines as listed above treated with sterile water instead of oligonucleotides. Each RNA sample was quantified (in duplicate) using a NanoDrop ND-1000 spectrophotometer (NanoDrop Technologies). The first strand of cDNA was produced using the cDNA Synthesis Kit for RT-PCR (Roche). For the cDNA synthesis reaction a total of 1 μg of RNA was used. For the real-time PCR, 10 ng of cDNA in a final volume of 20 μl was used with SYBR Green Master Mix 2× (Applied Biosystems) (3 identical experiments were conducted in triplicate). Two housekeeping genes were used as positive controls: GAPDH and beta-actin (ACTB). The conditions of the QT-PCR reaction were: 10 min at 95° C., 20 sec at 95° C., and 30 sec at 60° C., for 50 cycles. The PNAs having SEQ ID NO: 1-12 were also tested on different cell lines which overexpress MYCN (Kelly, SKNBE2c, RH30, […] 1 and H69). The results are shown in Table 6 and confirm the selectivity and specificity of the inhibition effect of the PNAs on the product of protein translation of the MYCN gene.

Substance	WERI-Rb1 % mRNA
SEQ ID NO: 1: PNA ATGCCGGGCATGATCT against MYCN; subject of patent EP 1618195, control sequence used for comparison (all peptide nucleic acid (PNA)) [reference compound]	31%
SEQ ID NO: 2: PNA antigene oligonucleotide GGGTGGATGCGGGGGG directed against MYCN (PNA backbone, chemistry not fully specified)	46%
SEQ ID NO: 3: PNA antigene oligonucleotide GATGCGGGGGGCTCCT directed against MYCN (PNA backbone, chemistry not fully specified)	43%
SEQ ID NO: 4: PNA antigene oligonucleotide GTCGGCGGGAGGTAAG directed against MYCN (PNA backbone, chemistry not fully specified)	41%
SEQ ID NO: 5: PNA antigene oligonucleotide GCTGGGTGGATGCGGG directed against MYCN (PNA backbone, chemistry not fully specified)	38%
SEQ ID NO: 6: PNA antigene oligonucleotide TGGACGCGCTGGGTGG directed against MYCN (PNA backbone, chemistry not fully specified)	37%
SEQ ID NO: 7: PNA antigene oligonucleotide CGCGCTGGGTGGATGC directed against MYCN (all peptide nucleic acid (PNA))	38%
SEQ ID NO: 8: PNA antigene oligonucleotide GTCTGGACGCGCTGGG directed against MYCN (all peptide nucleic acid (PNA))	40%
SEQ ID NO: 9: PNA antigene oligonucleotide CCCTGCAGTCGGCGGG directed against MYCN (all peptide nucleic acid (PNA))	36%
SEQ ID NO: 10: PNA antigene oligonucleotide CGGCCGCGGGCCGCCA directed against MYCN (PNA backbone, chemistry not fully specified)	30%
SEQ ID NO: 11: PNA antigene oligonucleotide GGGAACTGTGTTGGAG directed against MYCN (PNA backbone, chemistry not fully specified)	30%
SEQ ID NO: 12: PNA antigene oligonucleotide TGTCTGGACGCGCTGG directed against MYCN (all peptide nucleic acid (PNA))	30%
